Measured values from patent US9133207B2, “Tetrandrine derivatives with substituted 5-carbon, preparation method and use thereof” (Hangzhou Bensheng Pharmaceutical Co., Ltd., priority 2011, dated 2015).
Values after ≈ are worked out from the molar mass of the structure shown.

Assays:
PC-3 (prostate cancer) = experiment: Solid tumor cell growth inhibition, MTT, 72 h (Example 7); assay type: cell-based, human; details: Homo sapiens; 72 h, MTT, PC-3
Method in brief: (§1)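 4000 cells/well in DMEM high glucose with 10% FBS pre-cultured 24 h at 37 °C, 5% CO2, then exposed to tetrandrine derivatives at various concentrations for 72 h. Viability measured by MTT, expressed as % of untreated control.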

[1] = test system: Hep-2 (laryngeal carcinoma); experiment: as above; assay type: cell-based, human; details: Homo sapiens; 72 h, MTT, Hep 2
Method in brief: as §1

[2] = test system: CaES-17 (esophageal cancer cell); experiment: as above; assay type: cell-based, human; details: Homo sapiens, CaEs17; 72 h, MTT, CAES-17
Method in brief: as §1

[3] = test system: PANC-1 (pancreatic cancer); experiment: as above; assay type: cell-based, human; details: Homo sapiens; 72 h, MTT, PANC-1
Method in brief: as §1

MG63 (osteosarcoma) = experiment: as above; assay type: cell-based, human; details: Homo sapiens; 72 h, MTT, MG-63
Method in brief: as §1

[4] = test system: Jurkat (acute lymphoblastic leukemia, ALL); experiment: Leukemia cell growth inhibition, MTT, 72 h (Example 5); assay type: cell-based, human; details: Homo sapiens, Jurkat; 72 h, MTT
Method in brief: (§2)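 6000 cells/well in RPMI 1640 with 10% FBS exposed to graded derivative concentrations for 72 h at 37 °C, 5% CO2. Viable cell concentration then measured by MTT.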

[5] = test system: NB4 (acute promyelocytic leukemia, AML); experiment: as above; assay type: cell-based, human; details: Homo sapiens; 72 h, MTT
Method in brief: as §2

[6] = test system: H9 (acute lymphoblastic leukemia, ALL); experiment: as above; assay type: cell-based, human; details: Homo sapiens; 72 h, MTT
Method in brief: as §2

[7] = test system: Kasumi-1 (acute myeloid leukemia M2 type, AML-M2); experiment: as above; assay type: cell-based, human; details: Homo sapiens, Kasumi 1
Method in brief: as §2

[8] = test system: K562/adr (drug-resistant, chronic myeloid leukemia, CML); experiment: as above; assay type: cell-based, human; details: Homo sapiens, K562/Adr; 72 h, MTT
Method in brief: as §2

[9] = test system: RPMI8226 (multiple myeloma); experiment: Multiple myeloma cell growth inhibition, MTT, 72 h (Example 6); assay type: cell-based, human; details: Homo sapiens, RPMI-8226; 72 h, MTT, RPMI8226
Method in brief: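 RPMI8226 cells (6000 per well) in RPMI 1640 with 10% FBS were exposed to a range of tetrandrine derivative concentrations for 72 h at 37 °C under 5% CO2. Viable cell concentration was then measured by MTT.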

[10] = test system: Becap37 (human breast cancer cell); experiment: Solid tumor cell growth inhibition, MTT, 72 h (Example 7); assay type: cell-based; details: Homo sapiens; 72 h, MTT, Becap-37
Method in brief: as §1

[11] = test system: SK-OV-3 (ovarian cancer cell); experiment: as above; assay type: cell-based; details: Homo sapiens
Method in brief: as §1

[12] = test system: RKO (human colon adenocarcinoma cell); experiment: as above; assay type: cell-based; details: Homo sapiens; 72 h, MTT, RKO
Method in brief: as §1

[13] = test system: Hela (human cervical cancer cell); experiment: as above; assay type: cell-based; details: Homo sapiens; 72 h, MTT, Hela
Method in brief: as §1

[14] = test system: U87 MG (malignant glioma cell); experiment: as above; assay type: cell-based; details: Homo sapiens, U-87 MG
Method in brief: as §1

[15] = test system: MGC 803 (human gastric cancer cell); experiment: as above; assay type: cell-based; details: Homo sapiens
Method in brief: as §1

[16] = test system: Huh7 (human liver cancer cell); experiment: as above; assay type: cell-based; details: Homo sapiens; 72 h, MTT, Huh-7
Method in brief: as §1

A549 (human lung cancer) = experiment: as above; assay type: cell-based; details: Homo sapiens; 72 h, MTT, A549
Method in brief: as §1

[17] = test system: CNE (nasopharyngeal carcinoma cell); experiment: as above; assay type: cell-based; details: Homo sapiens
Method in brief: as §1

Q: COCC(C)OCc1c2c3c(c(OC)c1OC)Oc1cc4c(cc1OC)CCN(C)[C@H]4Cc1ccc(cc1)Oc1cc(ccc1OC)C[C@@H]3N(C)CC2 (some centres unmarked) [BS-TE-406] was tested. Which IC50 (PC-3 (prostate cancer)) did it give?
A: 3.32 µg/mL (≈ 4.58 µM)

Q: And the IC90 (PC-3 (prostate cancer))?
A: 6.95 µg/mL (≈ 9.59 µM)

Q: And the IC50 [1]?
A: 2.4 µg/mL (≈ 3.31 µM)

Q: What about the IC90 [1] of the same compound?
A: 6.87 µg/mL (≈ 9.48 µM)

Q: And the IC50 [2]?
A: 3.94 µg/mL (≈ 5.44 µM)

Q: What about the IC90 [2] of the same compound?
A: 16.4 µg/mL (≈ 22.7 µM)

Q: What about the IC50 [3] of the same compound?
A: 2.73 µg/mL (≈ 3.77 µM)

Q: And the IC90 [3]?
A: 16 µg/mL (≈ 22.1 µM)

Q: And the IC50 (MG63 (osteosarcoma))?
A: 2.49 µg/mL (≈ 3.43 µM)

Q: And the IC90 (MG63 (osteosarcoma))?
A: 6.36 µg/mL (≈ 8.77 µM)

Q: What about the IC50 [4] of the same compound?
A: 1.57 µg/mL (≈ 2.17 µM)

Q: And the IC90 [4]?
A: 9.9 µg/mL (≈ 13.7 µM)

Q: And the IC50 [5]?
A: 1.7 µg/mL (≈ 2.35 µM)

Q: And the IC90 [5]?
A: 5.5 µg/mL (≈ 7.59 µM)

Q: And the IC50 [6]?
A: 1.38 µg/mL (≈ 1.9 µM)

Q: What about the IC90 [6] of the same compound?
A: 3.41 µg/mL (≈ 4.7 µM)

Q: What about the IC50 [7] of the same compound?
A: 1.33 µg/mL (≈ 1.83 µM)

Q: And the IC90 [7]?
A: 6.67 µg/mL (≈ 9.2 µM)

Q: And the IC50 [8]?
A: 1.44 µg/mL (≈ 1.99 µM)

Q: What about the IC90 [8] of the same compound?
A: 5.38 µg/mL (≈ 7.42 µM)

Q: What about the IC50 [9] of the same compound?
A: 0.52 µg/mL (≈ 0.717 µM)

Q: And the IC90 [9]?
A: 2.81 µg/mL (≈ 3.88 µM)

Q: What about the IC50 [10] of the same compound?
A: 3.5 µg/mL (≈ 4.83 µM)

Q: What about the IC90 [10] of the same compound?
A: 10.8 µg/mL (≈ 14.9 µM)

Q: And the IC50 [11]?
A: 7.1 µg/mL (≈ 9.79 µM)

Q: And the IC90 [11]?
A: > 16 µg/mL

Q: What about the IC50 [12] of the same compound?
A: 0.89 µg/mL (≈ 1.23 µM)

Q: What about the IC90 [12] of the same compound?
A: 1.99 µg/mL (≈ 2.75 µM)

Q: What about the IC50 [13] of the same compound?
A: 1.07 µg/mL (≈ 1.48 µM)

Q: What about the IC90 [13] of the same compound?
A: 2.89 µg/mL (≈ 3.99 µM)

Q: What about the IC50 [14] of the same compound?
A: 2.86 µg/mL (≈ 3.95 µM)

Q: And the IC90 [14]?
A: 6.66 µg/mL (≈ 9.19 µM)

Q: And the IC50 [15]?
A: 2.87 µg/mL (≈ 3.96 µM)

Q: And the IC90 [15]?
A: 8 µg/mL (≈ 11 µM)

Q: And the IC50 [16]?
A: 2.31 µg/mL (≈ 3.19 µM)

Q: What about the IC90 [16] of the same compound?
A: 3.43 µg/mL (≈ 4.73 µM)

Q: What about the IC50 (A549 (human lung cancer)) of the same compound?
A: 8.4 µg/mL (≈ 11.6 µM)

Q: What about the IC90 (A549 (human lung cancer)) of the same compound?
A: > 16 µg/mL

Q: What about the IC50 [17] of the same compound?
A: 1.6 µg/mL (≈ 2.21 µM)

Q: And the IC90 [17]?
A: 3.49 µg/mL (≈ 4.81 µM)

Q: With COc1ccc2cc1Oc1ccc(cc1)C[C@H]1c3cc(c(OC)cc3CCN1C)Oc1c(OC)c(OC)c(COCc3cccnc3)c3c1[C@H](C2)N(C)CC3 [BS-TE-411] as the compound, how does the IC50 (PC-3 (prostate cancer)) read?
A: 2.41 µg/mL (≈ 3.24 µM)

Q: What about the IC90 (PC-3 (prostate cancer)) of the same compound?
A: 5.56 µg/mL (≈ 7.47 µM)

Q: What about the IC50 [1] of the same compound?
A: 2.15 µg/mL (≈ 2.89 µM)

Q: What about the IC90 [1] of the same compound?
A: 5.69 µg/mL (≈ 7.65 µM)

Q: What about the IC50 [2] of the same compound?
A: 2.76 µg/mL (≈ 3.71 µM)

Q: What about the IC90 [2] of the same compound?
A: 11.8 µg/mL (≈ 15.8 µM)

Q: And the IC50 [3]?
A: 2.29 µg/mL (≈ 3.08 µM)

Q: And the IC90 [3]?
A: 8.92 µg/mL (≈ 12 µM)

Q: What about the IC50 (MG63 (osteosarcoma)) of the same compound?
A: 1.26 µg/mL (≈ 1.69 µM)

Q: And the IC90 (MG63 (osteosarcoma))?
A: 3.07 µg/mL (≈ 4.13 µM)

Q: What about the IC50 [4] of the same compound?
A: 1 µg/mL (≈ 1.34 µM)

Q: What about the IC90 [4] of the same compound?
A: 8.5 µg/mL (≈ 11.4 µM)

Q: What about the IC50 [5] of the same compound?
A: 0.7 µg/mL (≈ 0.941 µM)

Q: What about the IC90 [5] of the same compound?
A: 2.6 µg/mL (≈ 3.5 µM)

Q: What about the IC50 [6] of the same compound?
A: 1.23 µg/mL (≈ 1.65 µM)

Q: And the IC90 [6]?
A: 2.5 µg/mL (≈ 3.36 µM)

Q: And the IC50 [7]?
A: 0.75 µg/mL (≈ 1.01 µM)

Q: And the IC90 [7]?
A: 3.58 µg/mL (≈ 4.81 µM)

Q: What about the IC50 [8] of the same compound?
A: 0.79 µg/mL (≈ 1.06 µM)

Q: And the IC90 [8]?
A: 3.59 µg/mL (≈ 4.83 µM)

Q: What about the IC50 [9] of the same compound?
A: 0.26 µg/mL (≈ 0.35 µM)

Q: And the IC90 [9]?
A: 1.35 µg/mL (≈ 1.81 µM)

Q: What about the IC50 [10] of the same compound?
A: 1.9 µg/mL (≈ 2.55 µM)

Q: And the IC90 [10]?
A: 4.9 µg/mL (≈ 6.59 µM)

Q: And the IC50 [11]?
A: 8 µg/mL (≈ 10.8 µM)

Q: What about the IC90 [11] of the same compound?
A: > 16 µg/mL

Q: And the IC50 [12]?
A: 0.26 µg/mL (≈ 0.35 µM)

Q: And the IC90 [12]?
A: 0.6 µg/mL (≈ 0.807 µM)

Q: And the IC50 [13]?
A: 1.49 µg/mL (≈ 2 µM)

Q: What about the IC90 [13] of the same compound?
A: 3.45 µg/mL (≈ 4.64 µM)

Q: What about the IC50 [14] of the same compound?
A: 1.09 µg/mL (≈ 1.47 µM)

Q: And the IC90 [14]?
A: 2.55 µg/mL (≈ 3.43 µM)

Q: And the IC50 [15]?
A: 2.15 µg/mL (≈ 2.89 µM)

Q: And the IC90 [15]?
A: 9.02 µg/mL (≈ 12.1 µM)

Q: What about the IC50 [16] of the same compound?
A: 1.13 µg/mL (≈ 1.52 µM)

Q: And the IC90 [16]?
A: 1.66 µg/mL (≈ 2.23 µM)

Q: What about the IC50 (A549 (human lung cancer)) of the same compound?
A: 5.5 µg/mL (≈ 7.39 µM)

Q: What about the IC90 (A549 (human lung cancer)) of the same compound?
A: 15.5 µg/mL (≈ 20.8 µM)

Q: And the IC50 [17]?
A: 1.32 µg/mL (≈ 1.77 µM)

Q: And the IC90 [17]?
A: 3.33 µg/mL (≈ 4.48 µM)
